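These data come from cells grown in 96-well plates and exposed to compound for 48 hours at five concentrations. GI50 = concentration required for 50% inhibition of growth. TGI denotes the concentration required for complete inhibition of growth.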
Key:
Assay in all cases: inhibition of tumour cell growth, NCI panel, 48 h
U251 CNS = test system: U251 CNS
EKVX NSCLC = test system: EKVX NSCLC
SNB-75 CNS = test system: SNB-75 CNS
HOP-18 NSCLC = test system: HOP-18 NSCLC
LXFL 529 NSCLC = test system: LXFL 529 NSCLC
KM12 colon = test system: KM12 colon
HCT-116 colon = test system: HCT-116 colon
OVCAR-4 ovarian = test system: OVCAR-4 ovarian
DMS 273 small cell lung = test system: DMS 273 small cell lung
LOX IMVI melanoma = test system: LOX IMVI melanoma
UO-31 renal = test system: UO-31 renal
SF-295 CNS = test system: SF-295 CNS
DLD-1 colon = test system: DLD-1 colon
RPMI-8226 leukemia = test system: RPMI-8226 leukemia
UACC-62 melanoma = test system: UACC-62 melanoma
A549 NSCLC = test system: A549 NSCLC
MALME-3M melanoma = test system: MALME-3M melanoma
SK-MEL-5 melanoma = test system: SK-MEL-5 melanoma
SNB-19 CNS = test system: SNB-19 CNS
TK-10 renal = test system: TK-10 renal
SNB-78 CNS = test system: SNB-78 CNS
OVCAR-5 ovarian = test system: OVCAR-5 ovarian
NCI-H226 lung = test system: NCI-H226 lung
RXF 393 renal = test system: RXF 393 renal
KM20L2 colon = test system: KM20L2 colon
SK-MEL-2 melanoma = test system: SK-MEL-2 melanoma
SW-620 colon = test system: SW-620 colon
NCI-H23 lung = test system: NCI-H23 lung
OVCAR-3 ovarian = test system: OVCAR-3 ovarian
CAKI-1 renal = test system: CAKI-1 renal
SF-539 CNS = test system: SF-539 CNS
OVCAR-8 ovarian = test system: OVCAR-8 ovarian
HCT-15 colon = test system: HCT-15 colon
SK-MEL-28 melanoma = test system: SK-MEL-28 melanoma
HCC-2998 colon = test system: HCC-2998 colon
786-0 renal = test system: 786-0 renal
SF-268 CNS = test system: SF-268 CNS
COLO 205 colon = test system: COLO 205 colon
NCI-H522 lung = test system: NCI-H522 lung
SN12C renal = test system: SN12C renal
SR leukemia = test system: SR leukemia
IGROV1 ovarian = test system: IGROV1 ovarian
M14 melanoma = test system: M14 melanoma
NCI-H460 lung = test system: NCI-H460 lung

Structure (SMILES): N.N.N.N.N.N#N.[Cl-].[Os+7]
- GI50 (U251 CNS): > 100 µM
- TGI (U251 CNS): > 100 µM
- GI50 (EKVX NSCLC): > 100 µM
- TGI (EKVX NSCLC): > 100 µM
- GI50 (SNB-75 CNS): > 100 µM
- TGI (SNB-75 CNS): > 100 µM
- GI50 (HOP-18 NSCLC): > 100 µM
- TGI (HOP-18 NSCLC): > 100 µM
- GI50 (LXFL 529 NSCLC): > 100 µM
- TGI (LXFL 529 NSCLC): > 100 µM
- GI50 (KM12 colon): > 100 µM
- TGI (KM12 colon): > 100 µM
- GI50 (HCT-116 colon): > 100 µM
- TGI (HCT-116 colon): > 100 µM
- GI50 (OVCAR-4 ovarian): > 100 µM
- TGI (OVCAR-4 ovarian): > 100 µM
- GI50 (DMS 273 small cell lung): > 100 µM
- TGI (DMS 273 small cell lung): > 100 µM
- GI50 (LOX IMVI melanoma): > 100 µM
- TGI (LOX IMVI melanoma): > 100 µM
- GI50 (UO-31 renal): > 100 µM
- TGI (UO-31 renal): > 100 µM
- GI50 (SF-295 CNS): > 100 µM
- TGI (SF-295 CNS): > 100 µM
- GI50 (DLD-1 colon): > 100 µM
- TGI (DLD-1 colon): > 100 µM
- GI50 (RPMI-8226 leukemia): > 100 µM
- TGI (RPMI-8226 leukemia): > 100 µM
- GI50 (UACC-62 melanoma): > 100 µM
- TGI (UACC-62 melanoma): > 100 µM
- GI50 (A549 NSCLC): > 100 µM
- TGI (A549 NSCLC): > 100 µM
- GI50 (MALME-3M melanoma): > 100 µM
- TGI (MALME-3M melanoma): > 100 µM
- GI50 (SK-MEL-5 melanoma): > 100 µM
- TGI (SK-MEL-5 melanoma): > 100 µM
- GI50 (SNB-19 CNS): > 100 µM
- TGI (SNB-19 CNS): > 100 µM
- GI50 (TK-10 renal): > 100 µM
- TGI (TK-10 renal): > 100 µM
- GI50 (SNB-78 CNS): > 100 µM
- TGI (SNB-78 CNS): > 100 µM
- GI50 (OVCAR-5 ovarian): > 100 µM
- TGI (OVCAR-5 ovarian): > 100 µM
- GI50 (NCI-H226 lung): > 100 µM
- TGI (NCI-H226 lung): > 100 µM
- GI50 (RXF 393 renal): > 100 µM
- TGI (RXF 393 renal): > 100 µM
- GI50 (KM20L2 colon): > 100 µM
- TGI (KM20L2 colon): > 100 µM
- GI50 (SK-MEL-2 melanoma): > 100 µM
- TGI (SK-MEL-2 melanoma): > 100 µM
- GI50 (SW-620 colon): > 100 µM
- TGI (SW-620 colon): > 100 µM
- GI50 (NCI-H23 lung): > 100 µM
- TGI (NCI-H23 lung): > 100 µM
- GI50 (OVCAR-3 ovarian): > 100 µM
- TGI (OVCAR-3 ovarian): > 100 µM
- GI50 (CAKI-1 renal): > 100 µM
- TGI (CAKI-1 renal): > 100 µM
- GI50 (SF-539 CNS): > 100 µM
- TGI (SF-539 CNS): > 100 µM
- GI50 (OVCAR-8 ovarian): > 100 µM
- TGI (OVCAR-8 ovarian): > 100 µM
- GI50 (HCT-15 colon): > 100 µM
- TGI (HCT-15 colon): > 100 µM
- GI50 (SK-MEL-28 melanoma): > 100 µM
- TGI (SK-MEL-28 melanoma): > 100 µM
- GI50 (HCC-2998 colon): > 100 µM
- TGI (HCC-2998 colon): > 100 µM
- GI50 (786-0 renal): > 100 µM
- TGI (786-0 renal): > 100 µM
- GI50 (SF-268 CNS): > 100 µM
- TGI (SF-268 CNS): > 100 µM
- GI50 (COLO 205 colon): > 100 µM
- TGI (COLO 205 colon): > 100 µM
- GI50 (NCI-H522 lung): > 100 µM
- TGI (NCI-H522 lung): > 100 µM
- GI50 (SN12C renal): > 100 µM
- TGI (SN12C renal): > 100 µM
- GI50 (SR leukemia): > 100 µM
- TGI (SR leukemia): > 100 µM
- GI50 (IGROV1 ovarian): > 100 µM
- TGI (IGROV1 ovarian): > 100 µM
- GI50 (M14 melanoma): > 100 µM
- TGI (M14 melanoma): > 100 µM
- GI50 (NCI-H460 lung): > 100 µM
- TGI (NCI-H460 lung): > 100 µM

— PubChem BioAssay (NCI)
